Measurements from ChEMBL document CHEMBL1149537, “Design and synthesis of 1,2-dithiolane derivatives and evaluation of their neuroprotective activity” (Bioorg Med Chem Lett, 2007).

Test system: HT-22
Test: Neuroprotective activity against glutamate-induced damage in mouse HT22 cells after 24 hrs
Assay type: functional, cell-based
Settings: HT-22, 24 h

Structure (SMILES)	EC50
COc1ccc(CCc2nnc(CCCCC3CCSS3)o2)cc1OC (stereo not given)	> 10 µM
O=C(CCCCC(S)CCS)NCCc1ccc(O)c(O)c1 (stereo not given)	> 10 µM
Oc1ccc(CCc2nnc(CCCCC3CCSS3)o2)cc1O (stereo not given)	4.21 µM
COc1ccc(CCNC(=O)CCCCC2CCSS2)cc1OC (stereo not given)	> 10 µM
COc1ccc(-c2noc(CCCCC3CCSS3)n2)cc1OC (stereo not given)	> 10 µM
Oc1ccc(CCn2nnnc2CCCCC2CCSS2)cc1O (stereo not given)	2.99 µM
COc1ccc(CCn2nnnc2CCCCC2CCSS2)cc1OC (stereo not given)	> 10 µM
COc1ccc(-c2nnc(CCCCC3CCSS3)o2)cc1OC (stereo not given)	> 10 µM
COc1ccc(-c2noc(CCCCC(S)CCS)n2)cc1OC (stereo not given)	> 10 µM
COc1ccc(-c2cn(CCCCCC3CCSS3)nn2)cc1OC (stereo not given)	> 10 µM
Oc1ccc(-c2noc(CCCCC3CCSS3)n2)cc1O (stereo not given)	3.63 µM
Oc1ccc(-c2cn(CCCCCC3CCSS3)nn2)cc1O (stereo not given)	6.23 µM
COc1ccc(CCn2nnnc2CCCCC(S)CCS)cc1OC (stereo not given)	> 10 µM
O=C(CCCCC1CCSS1)NCCc1ccc(O)c(O)c1 (stereo not given)	> 10 µM
COc1ccc(-c2csc(CCCCC3CCSS3)n2)cc1OC (stereo not given)	> 10 µM
